Experimental data published in US10745397B2, “1-Substituted 1,2,3,4-tetrahydro-1,7-naphthyridin-8-amine derivatives and their use as EP4 receptor antagonists” (TAKEDA PHARMACEUTICAL COMPANY LIMITED, priority 2015, dated 2020).

Key:
human EP4 receptor = target: T1, human EP4 receptor (Homo sapiens, UniProt P35408); assay: hEP4 radioligand binding assay ([3H] PGE2 competitive binding, membrane fractions); conditions: 300 nM compound; 1 nM [3H] PGE2
T1 construct: expressed in transfected cells; host or cells: FreeStyle293 (HEK293F) cells, transient transfection with pcDNA3.1(+), total membrane fraction
T1 sequence (P35408 whole entry): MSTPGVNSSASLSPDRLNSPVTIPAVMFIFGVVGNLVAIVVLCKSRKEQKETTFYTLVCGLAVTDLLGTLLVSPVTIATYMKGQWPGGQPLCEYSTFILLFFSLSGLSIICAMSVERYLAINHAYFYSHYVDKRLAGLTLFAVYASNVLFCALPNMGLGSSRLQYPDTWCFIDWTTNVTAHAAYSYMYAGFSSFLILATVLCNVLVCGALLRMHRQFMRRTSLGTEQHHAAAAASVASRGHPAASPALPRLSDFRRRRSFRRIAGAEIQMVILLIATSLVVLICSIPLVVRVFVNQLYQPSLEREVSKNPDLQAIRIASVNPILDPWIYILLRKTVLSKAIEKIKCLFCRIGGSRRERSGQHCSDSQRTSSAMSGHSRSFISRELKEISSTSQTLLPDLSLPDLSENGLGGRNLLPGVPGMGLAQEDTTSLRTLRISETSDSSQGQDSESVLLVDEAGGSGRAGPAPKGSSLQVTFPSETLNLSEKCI
Description: The full-length coding sequences for human EP1 (NM_000955), human EP2 (NM_000956), human EP3 (NM_198717) and human EP4 (NM_000958) were cloned into pcDNA3.1(+) vector (Life Technologies, CA, USA). In order to prepare overexpressed EP 1-4 membrane in Freestyle293 cells (Life Technologies, CA, USA), the pcDNA3.1(+) vector encoding a cDNA of the relevant gene was transiently transfected into FreeStyle293 cells using 293Fectin (Life Technologies, CA, USA) according to the manufacturer instruction manual. After 2 days, cultured cells were centrifuged (1,000×g, 10 min, 4° C.) and pellets homogenized by a probe sonicator (Sonics vibracell, Sonics and Materials Inc., USA; 31% Amp, 5 sec pulse, Imin interval, 4 cycles) in ice-cold 50 mM Tris-HCl buffer (pH 7.5 at 25° C.) containing 0.5 mM EDTA, 250 mM Sucrose and 10 mM MgCl2. Cell homogenates were centrifuged (890×g, 10 min, 4° C.), and the supernatant was recovered. Total membrane fractions were isolated by ultracentrifugation (140,000×g, 60 min, 4° C.). Pellets were re-suspended in the same buffer, and stored at −80° C. until use. The protein concentration in homogenate was determined with the BCA Protein Assay Kit (Pierce Biotechnology, Inc., IL, USA) according to the manufacturer protocol.
The binding affinity of the compounds was evaluated using a competitive radioligand binding assay which measured the specific binding of [3H] PGE2 to the human EP4 receptor. Briefly, varying concentrations of NCEs were incubated with cell membrane fractions generated HEK293F cells transiently transfected with human EP4 receptor as described above. Each reaction consisted of 10 μg membrane protein and NCE in 50 mM Tris-HCl, pH-6.0 by NaOH, 10 mM MgCl2 and 0.5 mM EDTA assay buffer. Radioligand, [3H] PGE2 (American Radiochemicals Inc. Specific Activity 180 Ci/mmol), at a final of 1 nM was added to each reaction where the final assay volume was 200 μL and concentration of DMSO was adjusted to 1%. Appropriate controls included total binding in the assay (vehicle control) and control for non-specific binding. Non-specific binding was evaluated by incubating the hEP4 protein with 10 μM unlabeled PGE2 under the same assay conditions as NCEs. The reaction was incubated at room temperature for 2 hours and terminated by harvesting the reaction contents to a PEI coated GF/C filter plate (PerkinElmer). The plate was washed four times with cold 50 mM Tris-HCl, pH-7.5 wash buffer and dried at 50° C. for 2 hours or at 37° C. overnight. [3H] PGE2 bound to the protein was quantified by the addition of 25 μL of Microscint PS (PerkinElmer) and plate was read on MicroBeta2 liquid Scintillation and luminescence counter (PerkinElmer). Data was analyzed using GraphPad Prism 5 (GraphPad Software Inc., San Diego, Calif.) where non-specific binding was normalized to 0% specific binding of [3]PGE2 and vehicle control (DMSO) was normalized to 100% specific binding of [3]PGE2. Binding affinity of NCEs, Ki, was generated using One site—Fit Ki equation in GraphPad Prism 5.

[1] = target: T2, hEP4 (C6 glioma cells overexpressing hEP4) (Homo sapiens, UniProt P35408); assay: hEP4 cell based assay (cAMP), inhibition of PGE2 induced cAMP, HTRF; conditions: 1 μM compound, PGE2 at EC80
T2 construct: host or cells: C6 glioma cells overexpressing hEP4
T2 sequence (P35408 whole entry): as above
Experimental: The functional assay for hEP4 activation and inhibition was carried out via the quantitative determination of agonist, PGE2, induced cAMP response using HTRF in a competitive immunoassay (Cisbio dynamic 2 kit). NCEs at varying concentrations were evaluated for inhibition of PGE2 induced increase in cAMP. Briefly, C6 glioma cells overexpressing hEP4 (Takeda) were cultured in DMEM (low glucose, pyruvate), 10% FBS (Gibco) and PenStep. The cells were harvested on the day of the assay, washed with HBSS+10 mM HEPES (pH 7.4)+0.1% BSA buffer and pre-incubated with varying concentrations of NCE. Each reaction contained 7000 cells and NCEs in HBSS+10 mM HEPES+0.1% BSA assay buffer along with PDE inhibitors IBMX and Ro 20-1724 (final concentration of each inhibitor […]). Following 15 min pre-incubation, the cells were treated with EC80 concentration of agonist PGE2 for 30 min to induce cAMP. Final volume of the assay was 6 μL and DMSO concentration was maintained at 1%. The reaction was terminated with the addition of cAMP labeled with the dye d2 in lysis buffer according to manufacturers' protocol. This was followed by the addition of the anti-cAMP antibody labeled with Cryptate according to the manufacturers' protocol. The reaction was incubated at room temperature in dark for 45 min and the plate was evaluated for fluorescence at 665 nm (FRET) and 620 nm (cryptate emission) on a Flexstation III microplate reader (Molecular Devices, Sunnyvale, Calif.) Ex max: 313 nm; Em1: 620 nm; Em2: 665 nm. Data was analyzed using GraphPad Prism 5 (GraphPad Software Inc., San Diego, Calif.) where cells treated with agonist (EC80) was normalized to 0% inhibition of hEP4 and cells treated with buffer (no agonist) was normalized to 100% inhibition of hEP4. IC50 of NCEs was generated using non-linear regression—Log(inhibitor) vs. response equation in GraphPad Prism 5.

| Compound | inhibition at 0.3 µM (human EP4 receptor) [%] | inhibition at 1 µM [1] [%] |
| --- | --- | --- |
| O=C(O)c1ccc(C2(Nc3nccc4c3N(Cc3ccc(C(F)(F)F)cc3)CCO4)CC2)cc1 [Example B20, 4-[1-[[4-[[4-(trifluoromethyl)phenyl]methyl]-2,3-dihydropyrido[4,3-b][1,4]oxazin-5-yl]amino]cyclopropyl]benzoic acid] | 92 | 92 |
| C[C@@H](Nc1nccc2c1N(Cc1cccc(Cl)c1)CCO2)c1ccc(C(=O)O)cc1 [Example B33, 4-[(1R)-1-[[4-[(3-chlorophenyl)methyl]-2,3-dihydropyrido[4,3-b][1,4]oxazin-5-yl]amino]ethyl]benzoic acid] | 66 | 36 |
| C[C@H](Nc1nccc2c1N(Cc1cc(F)cc(F)c1)CCO2)c1ccc(C(=O)O)cc1 [Example B13, 4-[(1S)-1-[[4-[(3,5-difluorophenyl)methyl]-2,3-dihydropyrido[4,3-b][1,4]oxazin-5-yl]amino]ethyl]benzoic acid] | 92 | 100 |
| C[C@H](Nc1nccc2c1N(Cc1ccc(Cl)cc1)CCO2)c1ccc(C(=O)O)cc1 [Example B7, 4-[(1S)-1-[[4-[(4-chlorophenyl)methyl]-2,3-dihydropyrido[4,3-b][1,4]oxazin-5-yl]amino]ethyl]benzoic acid] | 99 | 100 |
| Cc1cccc(CN2CCOc3ccnc(NC4(c5ccc(C(=O)O)cc5)CC4)c32)c1 [Example B25, 4-[1-[[4-(m-tolylmethyl)-2,3-dihydropyrido[4,3-b][1,4]oxazin-5-yl]amino]cyclopropyl]benzoic acid] | 98 | 79 |
| C[C@H](Nc1nccc2c1N(Cc1ccc(C(F)(F)F)cc1)CCO2)c1ccc(C(=O)O)cc1 [Example B5, 4-[(1S)-1-[[4-[[4-(trifluoromethyl)phenyl]methyl]-2,3-dihydropyrido[4,3-b][1,4]oxazin-5-yl]amino]ethyl]benzoic acid] | 74 | 100 |
| O=C(O)c1ccc(C2(Nc3nccc4c3N(Cc3cccc(Cl)c3)CCO4)CC2)cc1 [Example B24, 4-[1-[[4-[(3-chlorophenyl)methyl]-2,3-dihydropyrido[4,3-b][1,4]oxazin-5-yl]amino]cyclopropyl]benzoic acid acid] | 100 | 71 |
| O=C(O)c1ccc(C2(Nc3nccc4c3N(Cc3ccc(F)cc3)CCO4)CC2)cc1 [Example B18, 4-[1-[[4-[(4-fluorophenyl)methyl]-2,3-dihydropyrido[4,3-b][1,4]oxazin-5-yl]amino]cyclopropyl]benzoic acid] | 93 | 79 |
| C[C@H](Nc1nccc2c1N(Cc1ccc(F)cc1)CCO2)c1ccc(C(=O)O)cc1 [Example B9, 4-[(1S)-1-[[4-[(4-fluorophenyl)methyl]-2,3-dihydropyrido[4,3-b][1,4]oxazin-5-yl]amino]ethyl]benzoic acid] | 97 | 100 |
| O=C(O)c1ccc(C2(Nc3nccc4c3N(Cc3ccc(Cl)cc3)CCO4)CC2)cc1 [Example B19, 4-[1-[[4-[(4-chlorophenyl)methyl]-2,3-dihydropyrido[4,3-b][1,4]oxazin-5-yl]amino]cyclopropyl]benzoic acid] | 92 | 81 |
| COc1ccc(CN2CCOc3ccnc(NC4(c5ccc(C(=O)O)cc5)CC4)c32)cc1 [Example B21, 4-[1-[[4-[(4-methoxyphenyl)methyl]-2,3-dihydropyrido[4,3-b][1,4]oxazin-5-yl]amino]cyclopropyl]benzoic acid] | 87 | 87 |
| O=C(O)c1ccc(C2(Nc3nccc4c3N(Cc3cccc(F)c3)CCO4)CC2)cc1 [Example B16, 4-[1-[[4-[(3-fluorophenyl)methyl]-2,3-dihydropyrido[4,3-b][1,4]oxazin-5-yl]amino]cyclopropyl]benzoic acid] | 93 | 88 |
| O=C(O)c1ccc(C2(Nc3nccc4c3N(Cc3ccccc3)CCO4)CC2)cc1 [Example B22, 4-[1-[(4-benzyl-2,3-dihydropyrido[4,3-b][1,4]oxazin-5-yl)amino]cyclopropyl]benzoic acid] | 80 | 90 |

Results, then the compound that gave them:

| inhibition at 0.3 µM (human EP4 receptor) [%] | inhibition at 1 µM [1] [%] | Compound |
| --- | --- | --- |
| 85 | 98 | C[C@H](Nc1nccc2c1N(Cc1ccc(C(F)(F)F)cc1)CCO2)c1ccc(C(N)=O)cc1 [Example D1, 4-[(1S)-1-[[4-[[4-(Trifluoromethyl)phenyl]methyl]-2,3-dihydropyrido[4,3-b][1,4]oxazin-5-yl]amino]ethyl]benzamide] |
| 92 | 91 | C[C@H](Nc1nccc2c1N(Cc1ccc(C(F)(F)F)cc1)CCO2)c1ccc(C#N)cc1 [Example E1, 4-[(1S)-1-[[4-[[4-(Trifluoromethyl)phenyl]methyl]-2,3-dihydropyrido[4,3-b][1,4]oxazin-5-yl]amino]ethyl]benzonitrile] |
| 87 | 95 | Cc1cnc(N[C@@H](C)c2ccc(C(=O)O)cc2)c2c1OCCN2Cc1cccc(C(F)(F)F)c1 [Example B46, 4-[(1S)-1-[[8-Methyl-4-[[3-(trifluoromethyl)phenyl]methyl]-2,3-dihydropyrido[4,3-b][1,4]oxazin-5-yl]amino]ethyl]benzoic acid] |
| 80 | 85 | C[C@H](Nc1nccc2c1N(CCc1cccc(Cl)c1)CCO2)c1ccc(C(=O)O)cc1 [Example B40, 4-[(1S)-1-[[4-[2-(3-chlorophenyl)ethyl]-2,3-dihydropyrido[4,3-b][1,4]oxazin-5-yl]amino]ethyl]benzoic acid] |
| 87 | 92 | CONC(=O)c1ccc([C@H](C)Nc2nccc3c2N(Cc2ccc(C(F)(F)F)cc2)CCO3)cc1 [Example D2, N-Methoxy-4-[(1S)-1-[[4-[[4-(trifluoromethyl)phenyl]methyl]-2,3-dihydropyrido[4,3-b][1,4]oxazin-5-yl]amino]ethyl]benzamide] |
| 100 | 90 | C[C@H](Nc1nccc2c1N(Cc1ccc(C(F)(F)F)cc1)CCO2)c1ccc(-c2nnn[nH]2)cc1 [Example F1, N-[(1S)-1-[4-(1H-Tetrazol-5-yl)phenyl]ethyl]-4-[[4-(trifluoromethyl)phenyl]methyl]-2,3-dihydropyrido[4,3-b][1,4]oxazin-5-amine] |
